Assay results reported in patent US11053204B2, “Pyrimidinyloxy benzene derivatives as herbicides” (FMC Corporation, priority 2015, dated 2021).

Key:
Assay type in all cases: in vivo
[1] = tested on: galium (catchweed bedstraw, Galium aparine); assay: Test C preemergence, plant response rating
[2] = tested on: pigweed (Amaranthus retroflexus); assay: Test C preemergence, plant response rating; conditions: Preemergence
[3] = tested on: barnyardgrass (Echinochloa crus-galli); assay: Test C postemergence, plant response rating; conditions: for Plant response rating, Barnyardgrass: scale 0 to 100; for Barnyardgrass plant response rating: scale 0 to 100 (0 no effect, 100 complete control)
Outline: (§1)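 Pre-emergence: seeds sown in loam soil–sand blend or silt loam and sprayed with test chemicals in a non-phytotoxic solvent mixture with surfactant. Post-emergence: plants 2 to 18 cm (1- to 4-leaf stage) in peat-based potting medium, same formulation. Greenhouse 13 to 15 d; visual rating 0 (no effect) to 100 (complete control) versus controls.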

[4] = tested on: blackgrass (Alopecurus myosuroides); assay: Test C postemergence, plant response rating; conditions: for Plant response rating, Blackgrass: scale 0 to 100; for Blackgrass plant response rating: scale 0 to 100 (0 no effect, 100 complete control)
Outline: as §1

corn (Zea mays) = assay: Test C postemergence, plant response rating; conditions: for Plant response rating, Corn: scale 0 to 100; for Corn plant response rating: scale 0 to 100 (0 no effect, 100 complete control)
Outline: as §1

[5] = tested on: crabgrass, large (large crabgrass, Digitaria sanguinalis); assay: Test C postemergence, plant response rating; conditions: for Plant response rating, Crabgrass, Large: scale 0 to 100; for Crabgrass, Large plant response rating: scale 0 to 100 (0 no effect, 100 complete control)
Outline: as §1

[6] = tested on: foxtail, giant (giant foxtail, Setaria faberii); assay: Test C postemergence, plant response rating; conditions: for Plant response rating, Foxtail, Giant: scale 0 to 100; for Foxtail, Giant plant response rating: scale 0 to 100 (0 no effect, 100 complete control)
Outline: as §1

[7] = tested on: galium (catchweed bedstraw, Galium aparine); assay: Test C postemergence, plant response rating; conditions: for Plant response rating, Galium: scale 0 to 100; for Galium plant response rating: scale 0 to 100 (0 no effect, 100 complete control)
Outline: as §1

[8] = tested on: lambsquarters (Chenopodium album); assay: Test C postemergence, plant response rating; conditions: for Plant response rating, Lambsquarters: scale 0 to 100; for Lambsquarters plant response rating: scale 0 to 100 (0 no effect, 100 complete control)
Outline: as §1

[9] = tested on: nutsedge, yellow (yellow nutsedge, Cyperus esculentus); assay: Test C postemergence, plant response rating; conditions: for Plant response rating, Nutsedge, Yellow: scale 0 to 100; for Nutsedge, Yellow plant response rating: scale 0 to 100 (0 no effect, 100 complete control)
Outline: as §1

[10] = tested on: oat, wild (wild oat Avena fatua); assay: Test C postemergence, plant response rating; conditions: for Plant response rating, Oat, Wild: scale 0 to 100; for Oat, Wild plant response rating: scale 0 to 100 (0 no effect, 100 complete control)
Outline: as §1

[11] = tested on: oilseed rape (Brassica napus); assay: Test C postemergence, plant response rating; conditions: for Plant response rating, Oilseed Rape: scale 0 to 100; for Oilseed Rape plant response rating: scale 0 to 100 (0 no effect, 100 complete control)
Outline: as §1

[12] = tested on: ragweed (common ragweed, Ambrosia elatior); assay: Test C postemergence, plant response rating; conditions: for Plant response rating, Ragweed: scale 0 to 100; for Ragweed plant response rating: scale 0 to 100 (0 no effect, 100 complete control)
Outline: as §1

[13] = tested on: ryegrass, Italian (Italian ryegrass, Lolium multiflorum); assay: Test C postemergence, plant response rating; conditions: for Plant response rating, Ryegrass, Italian: scale 0 to 100; for Ryegrass, Italian plant response rating: scale 0 to 100 (0 no effect, 100 complete control)
Outline: as §1

soybean (Glycine max) = assay: Test C postemergence, plant response rating; conditions: for Plant response rating, Soybean: scale 0 to 100; for Soybean plant response rating: scale 0 to 100 (0 no effect, 100 complete control)
Outline: as §1

[14] = tested on: velvetleaf (Abutilon theophrasti); assay: Test C postemergence, plant response rating; conditions: for Plant response rating, Velvetleaf: scale 0 to 100; for Velvetleaf plant response rating: scale 0 to 100 (0 no effect, 100 complete control)
Outline: as §1

[15] = tested on: waterhemp (common waterhemp, Amaranthus rudis); assay: Test C postemergence, plant response rating; conditions: for Plant response rating, Waterhemp: scale 0 to 100; for Waterhemp plant response rating: scale 0 to 100 (0 no effect, 100 complete control)
Outline: as §1

[16] = tested on: wheat (winter wheat, Triticum aestivum); assay: Test C postemergence, plant response rating; conditions: for Plant response rating, Wheat: scale 0 to 100; for Wheat plant response rating: scale 0 to 100 (0 no effect, 100 complete control)
Outline: as §1

In the case of `N#Cc1cccc(Oc2ncc(Cl)cn2)c1CCCC(F)(F)F` [Compound 72], the “Plant response rating, Galium” value ([1]; 16 g ai/ha, scale 0 to 100) is reported as 5, the “Plant response rating, Galium” value ([1]; 31 g ai/ha, scale 0 to 100) is reported as 75 and the “Plant response rating, Galium” value ([1]; 62 g ai/ha, scale of 0 to 100) is reported as 90. The “Plant response rating, Galium” value ([1]; 125 g ai/ha, scale of 0 to 100) was 100, the “Plant response rating, Pigweed” value ([2]; 125 g ai/ha, scale of 0 to 100) was 100 and the “Plant response rating, Pigweed” value ([2]; 16 g ai/ha, scale 0 to 100) was 100. For the same molecule, the “Plant response rating, Pigweed” value ([2]; 31 g ai/ha, scale 0 to 100) was 100, the “Plant response rating, Pigweed” value ([2]; 62 g ai/ha, scale 0 to 100) was 100 and the “Plant response rating, Barnyardgrass” value ([3]; 16 g ai/ha) was 5. The “Plant response rating, Barnyardgrass” value ([3]; 31 g ai/ha) was 5, the “Barnyardgrass plant response rating” value ([3]; 62 g ai/ha) was 10 and the “Barnyardgrass plant response rating” value ([3]; 125 g ai/ha) was 10. The “Plant response rating, Blackgrass” value ([4]; 16 g ai/ha) was 5, the “Plant response rating, Blackgrass” value ([4]; 31 g ai/ha) was 10 and the “Blackgrass plant response rating” value ([4]; 62 g ai/ha) was 10. For the same molecule, the “Blackgrass plant response rating” value ([4]; 125 g ai/ha) was 30, the “Plant response rating, Corn” value (corn (Zea mays); 16 g ai/ha) was 10 and the “Plant response rating, Corn” value (corn (Zea mays); 31 g ai/ha) was 15. The “Corn plant response rating” value (corn (Zea mays); 62 g ai/ha) was 10, the “Corn plant response rating” value (corn (Zea mays); 125 g ai/ha) was 20 and the “Plant response rating, Crabgrass, Large” value ([5]; 16 g ai/ha) was 10. For the same molecule, the “Plant response rating, Crabgrass, Large” value ([5]; 31 g ai/ha) was 10, the “Crabgrass, Large plant response rating” value ([5]; 62 g ai/ha) was 10 and the “Crabgrass, Large plant response rating” value ([5]; 125 g ai/ha) was 50. The “Plant response rating, Foxtail, Giant” value ([6]; 16 g ai/ha) was 30, the “Plant response rating, Foxtail, Giant” value ([6]; 31 g ai/ha) was 30 and the “Foxtail, Giant plant response rating” value ([6]; 62 g ai/ha) was 20. The “Foxtail, Giant plant response rating” value ([6]; 125 g ai/ha) was 20, the “Plant response rating, Galium” value ([7]; 16 g ai/ha) was 80 and the “Plant response rating, Galium” value ([7]; 31 g ai/ha) was 80. For the same molecule, the “Galium plant response rating” value ([7]; 62 g ai/ha) was 5, the “Galium plant response rating” value ([7]; 125 g ai/ha) was 98 and the “Plant response rating, Lambsquarters” value ([8]; 16 g ai/ha) was 75. For the same molecule, the “Plant response rating, Lambsquarters” value ([8]; 31 g ai/ha) was 85, the “Lambsquarters plant response rating” value ([8]; 62 g ai/ha) was 75 and the “Lambsquarters plant response rating” value ([8]; 125 g ai/ha) was 85. For the same molecule, the “Plant response rating, Nutsedge, Yellow” value ([9]; 16 g ai/ha) was 5, the “Plant response rating, Nutsedge, Yellow” value ([9]; 31 g ai/ha) was 10 and the “Nutsedge, Yellow plant response rating” value ([9]; 62 g ai/ha) was 10. The “Nutsedge, Yellow plant response rating” value ([9]; 125 g ai/ha) was 15, the “Plant response rating, Oat, Wild” value ([10]; 16 g ai/ha) was 5 and the “Plant response rating, Oat, Wild” value ([10]; 31 g ai/ha) was 5. For the same molecule, the “Oat, Wild plant response rating” value ([10]; 62 g ai/ha) was 5, the “Oat, Wild plant response rating” value ([10]; 125 g ai/ha) was 10 and the “Plant response rating, Oilseed Rape” value ([11]; 16 g ai/ha) was 50. The “Plant response rating, Oilseed Rape” value ([11]; 31 g ai/ha) was 60, the “Oilseed Rape plant response rating” value ([11]; 62 g ai/ha) was 0 and the “Oilseed Rape plant response rating” value ([11]; 125 g ai/ha) was 65. The “Plant response rating, Ragweed” value ([12]; 16 g ai/ha) was 35, the “Plant response rating, Ragweed” value ([12]; 31 g ai/ha) was 50 and the “Ragweed plant response rating” value ([12]; 62 g ai/ha) was 40. The “Ragweed plant response rating” value ([12]; 125 g ai/ha) was 75, the “Plant response rating, Ryegrass, Italian” value ([13]; 16 g ai/ha) was 5 and the “Plant response rating, Ryegrass, Italian” value ([13]; 31 g ai/ha) was 5. For the same molecule, the “Ryegrass, Italian plant response rating” value ([13]; 62 g ai/ha) was 10, the “Ryegrass, Italian plant response rating” value ([13]; 125 g ai/ha) was 15 and the “Plant response rating, Soybean” value (soybean (Glycine max); 16 g ai/ha) was 60. The “Plant response rating, Soybean” value (soybean (Glycine max); 31 g ai/ha) was 70, the “Soybean plant response rating” value (soybean (Glycine max); 62 g ai/ha) was 40 and the “Soybean plant response rating” value (soybean (Glycine max); 125 g ai/ha) was 70. For the same molecule, the “Plant response rating, Velvetleaf” value ([14]; 16 g ai/ha) was 40, the “Plant response rating, Velvetleaf” value ([14]; 31 g ai/ha) was 50 and the “Velvetleaf plant response rating” value ([14]; 62 g ai/ha) was 40. The “Velvetleaf plant response rating” value ([14]; 125 g ai/ha) was 70, the “Plant response rating, Waterhemp” value ([15]; 16 g ai/ha) was 85 and the “Plant response rating, Waterhemp” value ([15]; 31 g ai/ha) was 80. The “Waterhemp plant response rating” value ([15]; 62 g ai/ha) was 90, the “Waterhemp plant response rating” value ([15]; 125 g ai/ha) was 90 and the “Plant response rating, Wheat” value ([16]; 16 g ai/ha) was 0. The “Plant response rating, Wheat” value ([16]; 31 g ai/ha) was 0, the “Wheat plant response rating” value ([16]; 62 g ai/ha) was 0 and the “Wheat plant response rating” value ([16]; 125 g ai/ha) was 5.
